Data from patent US6605722B2, “Tyrosine derivatives with anti-leukotrienen activity” (Rotta Research Laboratorium S.p.A., priority 2000, dated 2003).
Structures can show the parent of a compound that is named as a salt.

How the values were obtained:
[1] = Plasma levels in rats (oral bio-availability); format: in vivo; settings: 20 mg/kg
Procedure: In addition to the potency shown in vitro in the models given by way of example above, an advantageous and important characteristic of the compounds of the present invention is their optimal oral bio-availability. Thus, for example, Compound 1, administered to rats at a dose of 20 mg/kg, provided a maximum plasma concentration (CMAX) of about 20 mcg/ml 1 hour after administration.

[2] = system: contractions induced by LTD4 on isolated guinea-pig trachea; test: Antagonism of contractions induced by LTD4 on isolated guinea-pig trachea in vitro (Schild analysis); settings: for pA2 calculated according to Schild: LTD4 contraction; for pA2 calculated according to Schild / ED50 of LTD4 (cumulative dose-response curve): isolated guinea-pig trachea
Procedure: J. Physiol. Pharmacol. 67 (1989): 17-28], with slight modifications. […] The results were expressed as the effect as a percentage of the maximum contraction induced by 300 μM acetylcholine.

[3] = target: T1, peptide-leukotriene receptor (Cavia porcellus, UniProt Q2NNR5); test: Inhibition of the binding of [3H]-LTD4 to guinea-pig lung membranes; settings: for IC50: 0.3 nM [3H]-LTD4, guinea-pig lung membranes, 30 minutes at 25° C., read-out: IC50, concentration of antagonist displacing 50% of the [3H]-LTD4 ligand from the receptor; for affinity compared with the specific LTD4 agonist: guinea-pig lung membranes, nanomolar level
T1 construct: from tissue; host or cells: guinea-pig lung membranes
T1 sequence (Q2NNR5 1-340): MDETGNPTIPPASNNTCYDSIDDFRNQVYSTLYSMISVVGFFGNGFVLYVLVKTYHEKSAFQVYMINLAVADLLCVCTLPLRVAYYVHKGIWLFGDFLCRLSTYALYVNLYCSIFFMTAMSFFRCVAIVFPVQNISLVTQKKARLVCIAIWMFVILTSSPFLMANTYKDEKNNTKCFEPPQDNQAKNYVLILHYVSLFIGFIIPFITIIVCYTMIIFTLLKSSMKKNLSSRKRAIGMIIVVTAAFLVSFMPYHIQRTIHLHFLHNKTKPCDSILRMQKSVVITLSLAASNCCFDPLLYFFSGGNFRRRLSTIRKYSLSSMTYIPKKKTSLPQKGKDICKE
Procedure: The method described by Frey et al. [Eur. J. Pharmacol. 244 (1993): 239-250] was followed, with slight modifications.
The separation of the bound from the free was performed by rapid filtration on Whatman GF/B paper filters.

[4] = system: sensitized guinea-pigs (ovalbumin challenge); test: Bronchoconstriction after aerosolized ovalbumin challenge in sensitized guinea-pigs; format: in vivo; settings: 0.3 mg/kg orally 30 minutes before aerosolized ovalbumin challenge
[5] = Acute toxicity (LD50) in mice; format: in vivo; settings: mouse, in vivo
Excerpt: (§1) The compounds according to the invention also have a low toxicity profile.

mice = test: Acute toxicity (LD50) in mice; format: in vivo; settings: oral route; effective dose 0.3 mg/kg
Excerpt: as §1

[6] = antagonist concentration 100 nM

| SMILES | melting point | IC50 [3] | other results |
| --- | --- | --- | --- |
| O=C(NC(Cc1ccc(OCc2ccc3ccccc3n2)cc1)C(=O)O)c1ccccc1 (stereo not shown) (as salt: hydrochloride) [Compound 2] | 140 °C |  |  |
| O=C(NC(Cc1ccc(OCc2ccc3ccccc3n2)cc1)C(=O)O)c1ccc(-c2ccccc2)cc1 (stereo not shown) (as salt: hydrochloride) [Compound 8] | 230 °C (dec.) |  |  |
| O=C(NC(Cc1ccc(OCc2ccc3ccc(F)cc3n2)cc1)C(=O)O)c1ccc2ccccc2n1 (racemic) [Compound 17, O-(7-fluoro-2-quinolinylmethyl)-N-quinaldoyl-D,L-tyrosine] |  | 7.9 nM | pA2 calculated according to Schild [2]: pA2 = 8.53; ED50 of LTD4 (cumulative dose-response curve) ([2]; antagonist concentration 3 nM): 4.69 nM; ED50 of LTD4 (cumulative dose-response curve) ([2]; antagonist concentration 30 nM): 9.48 nM; ED50 of LTD4 (cumulative dose-response curve) ([2]; antagonist concentration 300 nM): 19.78 nM; inhibition of the signs of bronchoconstriction (first appearance of abdominal contractions) [4]: completely inhibited; affinity compared with the specific LTD4 agonist [3]: comparable; LD50 ([5]; iv): > 50 mg/kg; LD50 ([5]; po): > 300 mg/kg; acute toxic oral dose in mice relative to the pharmacologically effective dose (mice): more than 1000 times |
| O=C(NC(Cc1ccc(OCc2ccc3ccccc3n2)cc1)C(=O)O)c1ccccc1 (stereo not shown) [Compound 2] |  | 190 nM |  |
| O=C(NC(Cc1ccc(OCc2ccc3ccccc3n2)cc1)C(=O)O)c1ccc(Cl)cc1 (stereo not shown) [Compound 3] | 197 °C | 98.1 nM |  |
| O=C(NC(Cc1ccc(OCc2ccc3ccccc3n2)cc1)C(=O)O)c1cccc(Cl)c1 (stereo not shown) [Compound 4] | 187 °C | 110 nM |  |
| COc1ccc(C(=O)NC(Cc2ccc(OCc3ccc4ccccc4n3)cc2)C(=O)O)cc1 (stereo not shown) [Compound 5] | 212 °C | 117 nM |  |
| O=C(NC(Cc1ccc(OCc2ccc3ccccc3n2)cc1)C(=O)O)c1ccccc1-c1ccccc1 (stereo not shown) [Compound 7] | 155 °C | 181 nM |  |
| O=C(NC(Cc1ccc(OCc2ccc3ccccc3n2)cc1)C(=O)O)c1ccc(-c2ccccc2)cc1 (stereo not shown) [Compound 8] |  | 61.7 nM |  |
| O=C(NC(Cc1ccc(OCc2ccc3ccc(Cl)cc3n2)cc1)C(=O)O)c1ccc(-c2ccccc2)cc1 (stereo not shown) [Compound 9] | 193 °C | 217 nM |  |
| O=C(NC(Cc1ccc(OCc2ccc3ccccc3n2)cc1)C(=O)O)c1cnc2ccccc2c1 (stereo not shown) [Compound 12] | 230 °C | 76 nM |  |
| O=C(NC(Cc1ccc(OCc2ccc3ccccc3n2)cc1)C(=O)O)c1ccc2ncccc2c1 (stereo not shown) [Compound 13] | 248 °C | 135 nM |  |
| O=C(NC(Cc1ccc(OCc2ccc3ccccc3n2)cc1)C(=O)O)c1cccc2cccnc12 (stereo not shown) [Compound 14] | 141 °C (dec.) | 64 nM |  |
| O=C(NC(Cc1ccc(OCc2ccc3ccccc3n2)cc1)C(=O)O)c1ccnc2ccccc12 (stereo not shown) [Compound 16] | 224 °C | 200 nM |  |
| O=C(NC(Cc1ccc(OCc2ccc3ccccc3n2)cc1)C(=O)O)c1nccc2ccccc12 (stereo not shown) [Compound 20] | 157 °C | 64.1 nM |  |
| O=C(NC(Cc1ccc(OCc2ccc3ccccc3n2)cc1)C(=O)O)c1cc2ccccc2[nH]1 (stereo not shown) [Compound 23] | 223 °C | 103 nM |  |
| O=C(NC(Cc1ccc(OCc2ccc3ccccc3n2)cc1)C(=O)O)c1cnc2ccccc2n1 (stereo not shown) [Compound 27] | > 240 °C | 161 nM |  |
| O=C(NC(Cc1ccc(OCc2ccc3ccccc3n2)cc1)C(=O)O)c1cnnc2ccccc12 (stereo not shown) [Compound 28] | 232 °C | > 300 nM |  |
| O=C(NC(Cc1ccc(OCc2ccc3ccccc3n2)cc1)C(=O)O)c1ccc2nc[nH]c2c1 (stereo not shown) [Compound 29] | > 250 °C | 90.3 nM |  |

Further lines, with some results ahead:

| melting point | IC50 [3] | SMILES | other results |
| --- | --- | --- | --- |
|  | 20 nM | O=C(NC(Cc1ccc(OCc2ccc3ccccc3n2)cc1)C(=O)O)c1ccc2ccccc2n1 (racemic) [Compound 1, O-(2-quinolinylmethyl)-N-quinaldoyl-D,L-tyrosine] | time of maximum plasma concentration after administration [1]: 1 h; AUC ([1]; rat, plasma, oral): ~50000 ng·h/mL; concentration at 8 h ([1]; rat, plasma, oral, 8 h, read-out: plasma concentration 8 h after administration): > 2000 ng/mL; Cmax ([1]; rat, plasma, oral, read-out: maximum plasma concentration (CMAX)): ~20000 ng/mL; pA2 calculated according to Schild [2]: pA2 = 7.88; ED50 of LTD4 (cumulative dose-response curve) ([2]; antagonist concentration 10 nM): 4.53 nM; ED50 of LTD4 (cumulative dose-response curve) ([2]; antagonist concentration 30 nM): 15.31 nM; ED50 of LTD4 (cumulative dose-response curve) [2, 6]: 31.75 nM |
| 211 °C | 42.7 nM | O=C(NC(Cc1ccc(OCc2ccc3ccccc3n2)cc1)C(=O)O)c1ccc(C(F)(F)F)cc1 (stereo not shown) [Compound 6] |  |
| 171 °C | 32.3 nM | O=C(NC(Cc1ccc(OCc2ccc3ccccc3n2)cc1)C(=O)O)c1ccccn1 (stereo not shown) [Compound 10] |  |
| 196 °C | 39 nM | O=C(NC(Cc1ccc(OCc2ccc3ccccc3n2)cc1)C(=O)O)c1ccc2ccccc2c1 (stereo not shown) [Compound 11] |  |
| 214 °C | 11.3 nM | Cc1ccc2ccc(COc3ccc(CC(NC(=O)c4ccc5ccccc5n4)C(=O)O)cc3)nc2c1 (stereo not shown) [Compound 15] |  |
|  | 5.5 nM | O=C(N[C@@H](Cc1ccc(OCc2ccc3ccc(F)cc3n2)cc1)C(=O)O)c1ccc2ccccc2n1 [Compound 18, O-(7-fluoro-2-quinolinylmethyl)-N-quinaldoyl-L-tyrosine] | affinity compared with the specific LTD4 agonist [3]: comparable |
|  | 12.2 nM | O=C(N[C@H](Cc1ccc(OCc2ccc3ccc(F)cc3n2)cc1)C(=O)O)c1ccc2ccccc2n1 [Compound 19, O-(7-fluoro-2-quinolinylmethyl)-N-quinaldoyl-D-tyrosine] |  |
| 204 °C | 9.7 nM | O=C(NC(Cc1ccc(OCc2ccc3ccccc3n2)cc1)C(=O)O)c1cc2ccccc2cn1 (stereo not shown) [Compound 21] |  |
| 227 °C | 5.3 nM | O=C(NC(Cc1ccc(OCc2ccc3ccc(F)cc3n2)cc1)C(=O)O)c1cc2ccccc2cn1 (stereo not shown) [Compound 22] | Kb ([2]; Cavia porcellus, equivalent to the calculated pA2): 1.73 nM; ED50 of LTD4 (cumulative dose-response curve) ([2]; antagonist concentration 10 nM): 8.03 nM; ED50 of LTD4 (cumulative dose-response curve) ([2]; antagonist concentration 30 nM): 13.71 nM; ED50 of LTD4 (cumulative dose-response curve) [2, 6]: 25.39 nM; affinity compared with the specific LTD4 agonist [3]: comparable |
| 226 °C | 55.3 nM | O=C(NC(Cc1ccc(OCc2ccc3ccccc3n2)cc1)C(=O)O)c1c[nH]c2ccccc12 (stereo not shown) [Compound 24] |  |
| 198 °C | 34.8 nM | Cn1c(C(=O)NC(Cc2ccc(OCc3ccc4ccccc4n3)cc2)C(=O)O)cc2ccccc21 (stereo not shown) [Compound 25] |  |
| 180 °C | 50.8 nM | Cn1cc(C(=O)NC(Cc2ccc(OCc3ccc4ccccc4n3)cc2)C(=O)O)c2ccccc21 (stereo not shown) [Compound 26] |  |
| 170 °C | 24.1 nM | O=C(NC(Cc1ccc(OCc2ccc3ccccc3n2)cc1)C(=O)O)c1ccc(-c2ccccc2)cn1 (stereo not shown) [Compound 30] |  |
